Holding throughout (format): biochemical
The target in assay [1] is T1, group V secreted PLA2 (sPLA2) (Homo sapiens, UniProt P39877).
T1 sequence (P39877 21-138): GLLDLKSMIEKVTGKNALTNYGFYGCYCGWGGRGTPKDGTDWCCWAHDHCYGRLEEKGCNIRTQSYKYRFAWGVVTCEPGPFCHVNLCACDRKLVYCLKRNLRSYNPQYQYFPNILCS
The assay can be described thus: Lipidomics LC-MS mixed micelle PLA2 assay, sPLA2.

In assay [2] the target is T1, group V secreted PLA2 (sPLA2). The assay can be described thus: Traditional radioactive assay.
The target of assay [3] is group VIA calcium-independent (iPLA2) (Homo sapiens, UniProt O60733). As to the kind of experiment: Lipidomics LC-MS mixed micelle PLA2 assay, iPLA2. The following applies: for IC50: IC50, single phospholipid PAPC.
Sequence of group VIA calcium-independent (iPLA2) (O60733 whole entry): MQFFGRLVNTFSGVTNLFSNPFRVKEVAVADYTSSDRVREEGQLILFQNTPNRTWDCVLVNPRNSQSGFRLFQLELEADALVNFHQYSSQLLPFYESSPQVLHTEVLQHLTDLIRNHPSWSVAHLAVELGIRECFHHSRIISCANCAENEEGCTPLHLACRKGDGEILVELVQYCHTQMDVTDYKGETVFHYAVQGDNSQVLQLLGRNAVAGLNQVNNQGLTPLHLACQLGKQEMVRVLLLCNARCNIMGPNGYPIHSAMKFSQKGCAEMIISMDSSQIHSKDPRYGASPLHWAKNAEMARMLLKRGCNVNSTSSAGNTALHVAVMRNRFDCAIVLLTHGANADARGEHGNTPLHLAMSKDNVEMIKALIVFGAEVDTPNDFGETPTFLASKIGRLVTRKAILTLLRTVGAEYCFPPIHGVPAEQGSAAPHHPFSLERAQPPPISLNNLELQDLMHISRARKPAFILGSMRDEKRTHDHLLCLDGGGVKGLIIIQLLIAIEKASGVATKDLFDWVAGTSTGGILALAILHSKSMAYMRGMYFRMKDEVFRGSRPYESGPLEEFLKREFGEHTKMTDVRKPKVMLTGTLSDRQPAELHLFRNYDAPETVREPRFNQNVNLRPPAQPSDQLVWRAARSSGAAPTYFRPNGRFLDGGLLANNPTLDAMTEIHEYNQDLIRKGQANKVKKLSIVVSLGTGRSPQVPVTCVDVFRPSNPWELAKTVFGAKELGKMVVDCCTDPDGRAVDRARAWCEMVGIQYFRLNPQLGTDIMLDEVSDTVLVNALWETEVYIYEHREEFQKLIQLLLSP

Turning to `CCc1c(C(=O)C(N)=O)c2c(OCC(=O)O)cccc2n1Cc1ccccc1` [Ly315920], the IC50 in assay [1] (IC50, single phospholipid PAPC, 16:0 LPC detected, positive ion mode) turned out to be 104 nM; in assay [1] (IC50, single phospholipid PAPG, 16:0 LPG detected, positive ion mode) it was 18000 nM; in assay [1] (IC50, single phospholipid PAPG, free AA detected, negative ion mode) it was 22000 nM; in assay [2], 56 nM. Moreover, in assay [1] (single phospholipid PAPC, free AA detected, negative ion mode), the “XI(50)” value was found to be 0.0002.

For the compound `CCCCCCCCSCC(=O)C(F)(F)F` [OTFP], the IC50 turned out to be 58 nM in assay [3] (16:0 LPC detected, positive ion mode) and 34 nM in assay [3] (free AA detected, negative ion mode). Besides, the “greater inhibitor potency with PAPC as substrate versus PLPC” value in assay [3] (PAPC versus PLPC substrate) is “approximately twofold”.

Source of the values: publication PMC6398150 (Journal of Medicinal Chemistry, 2019).
